Patent US10206394B2, “Herbicidal compounds” (Syngenta Participations AG, priority 2014, dated 2019)
Read-outs that look alike come from different tables or passages of the source.

Assays:
Assay in all cases: Glasshouse assay for herbicidal activity (pre- and post-emergence), percentage phytotoxicity
Assay type in all cases: in vivo
[1] = system: Alopecurus myosuroides (ALOMY); conditions: Alopecurus myosuroides
Outline: (§1)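 Herbicide was applied to potted plants sown in standard soil, one day after sowing for PRE and after about 12 days for POST. Visual percentage damage ratings followed at 15 DAA (POST) and 20 DAA (PRE).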

Avena fatua (AVEFA) = conditions: Avena fatua
Outline: as §1

[2] = system: Echinochloa crus-galli (ECHCG); conditions: Echinochloa crus-galli
Outline: as §1

Lolium perenne (LOLPE) = conditions: Lolium perenne
Outline: as §1

[3] = post-emergence, 360 h, 250 g/ha, post-emergence, 15 DAA, visual assessment (100%=total damage, 0%=no damage), read-out: Post-emergence herbicidal activity (percentage phytotoxicity) ALOMY POST
[4] = pre-emergence, 480 h, 250 g/ha, pre-emergence, 20 DAA, visual assessment (100%=total damage, 0%=no damage), read-out: Pre-emergence herbicidal activity (percentage phytotoxicity) ALOMY PRE
[5] = post-emergence, 360 h, 250 g/ha, post-emergence, 15 DAA, visual assessment (100%=total damage, 0%=no damage), read-out: Post-emergence herbicidal activity (percentage phytotoxicity) AVEFA POST
[6] = pre-emergence, 480 h, 250 g/ha, pre-emergence, 20 DAA, visual assessment (100%=total damage, 0%=no damage), read-out: Pre-emergence herbicidal activity (percentage phytotoxicity) AVEFA PRE
[7] = post-emergence, 360 h, 250 g/ha, post-emergence, 15 DAA, visual assessment (100%=total damage, 0%=no damage), read-out: Post-emergence herbicidal activity (percentage phytotoxicity) ECHCG POST
[8] = pre-emergence, 480 h, 250 g/ha, pre-emergence, 20 DAA, visual assessment (100%=total damage, 0%=no damage), read-out: Pre-emergence herbicidal activity (percentage phytotoxicity) ECHCG PRE
[9] = post-emergence, 360 h, 250 g/ha, post-emergence, 15 DAA, visual assessment (100%=total damage, 0%=no damage), read-out: Post-emergence herbicidal activity (percentage phytotoxicity) LOLPE POST
[10] = pre-emergence, 480 h, 250 g/ha, pre-emergence, 20 DAA, visual assessment (100%=total damage, 0%=no damage), read-out: Pre-emergence herbicidal activity (percentage phytotoxicity) LOLPE PRE
[11] = post-emergence, 360 h, Rate 250 g/ha, post-emergence, assessed visually 15 DAA, 100%=total damage, 0%=no damage, read-out: Post-emergence herbicidal activity (percentage phytotoxicity) ALOMY POST
[12] = pre-emergence, 480 h, Rate 250 g/ha, pre-emergence, assessed visually 20 DAA, 100%=total damage, 0%=no damage, read-out: Pre-emergence herbicidal activity (percentage phytotoxicity) ALOMY PRE
[13] = post-emergence, 360 h, Rate 250 g/ha, post-emergence, assessed visually 15 DAA, 100%=total damage, 0%=no damage, read-out: Post-emergence herbicidal activity (percentage phytotoxicity) AVEFA POST
[14] = pre-emergence, 480 h, Rate 250 g/ha, pre-emergence, assessed visually 20 DAA, 100%=total damage, 0%=no damage, read-out: Pre-emergence herbicidal activity (percentage phytotoxicity) AVEFA PRE
[15] = post-emergence, 360 h, Rate 250 g/ha, post-emergence, assessed visually 15 DAA, 100%=total damage, 0%=no damage, read-out: Post-emergence herbicidal activity (percentage phytotoxicity) ECHCG POST
[16] = pre-emergence, 480 h, Rate 250 g/ha, pre-emergence, assessed visually 20 DAA, 100%=total damage, 0%=no damage, read-out: Pre-emergence herbicidal activity (percentage phytotoxicity) ECHCG PRE
[17] = post-emergence, 360 h, Rate 250 g/ha, post-emergence, assessed visually 15 DAA, 100%=total damage, 0%=no damage, read-out: Post-emergence herbicidal activity (percentage phytotoxicity) LOLPE POST
[18] = pre-emergence, 480 h, Rate 250 g/ha, pre-emergence, assessed visually 20 DAA, 100%=total damage, 0%=no damage, read-out: Pre-emergence herbicidal activity (percentage phytotoxicity) LOLPE PRE

Structure (SMILES)	pest or weed control at 250 g/ha [1, 3]	pest or weed control at 250 g/ha [1, 4]	pest or weed control at 250 g/ha (Avena fatua (AVEFA); [5])	pest or weed control at 250 g/ha (Avena fatua (AVEFA); [6])	pest or weed control at 250 g/ha [2, 7]	pest or weed control at 250 g/ha [2, 8]	pest or weed control at 250 g/ha (Lolium perenne (LOLPE); [9])	pest or weed control at 250 g/ha (Lolium perenne (LOLPE); [10])	pest or weed control at 250 g/ha [1, 11]	pest or weed control at 250 g/ha [1, 12]	pest or weed control at 250 g/ha (Avena fatua (AVEFA); [13])	pest or weed control at 250 g/ha (Avena fatua (AVEFA); [14])	pest or weed control at 250 g/ha [2, 15]	pest or weed control at 250 g/ha [2, 16]	pest or weed control at 250 g/ha (Lolium perenne (LOLPE); [17])	pest or weed control at 250 g/ha (Lolium perenne (LOLPE); [18])
Cc1cc(C)c(C2C(=O)CC(CC(=O)NC(C)C(F)(F)F)C2=O)c(C)c1 (centres unmarked) [Compound B63]	70%	80%	70%	50%	70%	80%	70%	80%	–	–	–	–	–	–	–	–
Cc1ccnc(CNC(=O)CC2CC(=O)C(c3c(C)cc(C)cc3C)C2=O)c1 (centres unmarked) [Compound B66]	90%	90%	80%	0%	80%	90%	90%	90%	–	–	–	–	–	–	–	–
CC#Cc1cc(C)c(C2C(=O)CC(CC(=O)NC3CCCC3)C2=O)c(CC)c1 (centres unmarked) [Compound A52]	–	–	–	–	–	–	–	–	100%	100%	100%	90%	100%	90%	90%	90%
COCCCNC(=O)CC1CC(=O)C(c2c(C)cc(-c3ncc(Cl)cc3F)cc2C)C1=O (centres unmarked) [Compound B128]	100%	100%	100%	100%	100%	100%	100%	100%	–	–	–	–	–	–	–	–
Cc1cc(-c2ccc(Cl)cc2)cc(C)c1C1C(=O)CC(CC(=O)NC(C)C)C1=O (centres unmarked) [Compound A35]	–	–	–	–	–	–	–	–	90%	90%	100%	100%	100%	100%	100%	100%
Cc1cc(C)c(C2C(=O)CC(CC(=O)NC(C)(C)CCl)C2=O)c(C)c1 (centres unmarked) [Compound B39]	80%	30%	70%	30%	50%	0%	60%	60%	–	–	–	–	–	–	–	–
C=C(C)CNC(=O)CC1CC(=O)C(c2c(C)cc(-c3ncc(Cl)cc3F)cc2C)C1=O (centres unmarked) [Compound B94]	100%	100%	100%	90%	100%	100%	100%	100%	–	–	–	–	–	–	–	–
